Experimental data reported in article PMC8069214, “Synthesis, Biological Evaluation, and Molecular Modeling of Aza-Crown Ethers” (Molecules, 2021).
Where a name gives a salt, the structure may show the parent alone.

Target: T1, FPR2 (Homo sapiens, UniProt P25090)
T1 construct: expressed in transfected cells
T1 sequence (P25090 1-351): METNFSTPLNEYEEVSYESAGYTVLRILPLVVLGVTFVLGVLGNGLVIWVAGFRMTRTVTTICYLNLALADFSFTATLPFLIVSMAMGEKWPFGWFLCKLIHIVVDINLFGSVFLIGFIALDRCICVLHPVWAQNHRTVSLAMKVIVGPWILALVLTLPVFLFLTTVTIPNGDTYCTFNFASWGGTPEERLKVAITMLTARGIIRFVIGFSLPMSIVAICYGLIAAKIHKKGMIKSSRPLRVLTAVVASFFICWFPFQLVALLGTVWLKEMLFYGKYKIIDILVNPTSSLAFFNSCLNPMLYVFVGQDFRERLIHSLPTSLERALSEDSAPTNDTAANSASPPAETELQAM
Assay: Inhibition of WKYMVM-induced [Ca2+]i flux in FPR2-HL60 cells
Assay type: cell-based
Settings: 10 min preincubation, 5 nM WKYMVM; N.A. = no activity at < 50 µM; read-out: FPR1/FPR2 Agonist-Induced Δ[Ca^2+]i FPR2-HL60 IC50
Description: (§1) Since these compounds elevated neutrophil [Ca^2+]i, and cytosolic Ca^2+ flux is a key component of neutrophil activation, we evaluated if they could alter neutrophil activation by FPR1 or FPR2 agonists. Neutrophils and FPR-transfected HL60 cells were preincubated for 10 min with crown ether compounds, and [Ca^2+]i flux was stimulated with either an FPR1 agonist (fMLF for human neutrophils and FPR1-HL60 cells) or an FPR2 agonist (WKYMVM for FPR2-HL60 cells).
(§2) Human promyelocytic leukemia HL60 cells stably transfected with FPR1 (FPR1-HL60 cells) or FPR2 (FPR2-HL60 cells) (kind gifts from Dr. Marie-Josephe Rabiet, INSERM, Grenoble, France) were cultured in RPMI 1640 medium supplemented with 10% heat-inactivated fetal calf serum, 10 mM HEPES, 100 μg/mL streptomycin, 100 U/mL penicillin, and G418 (1 mg/mL). Although stable cell lines are cultured under G418 selection pressure, G418 may affect some assays, so it was removed in the last round of culture before assays were performed.
(§3) Changes in neutrophil intracellular Ca^2+ concentrations ([Ca^2+]i) were measured with a FlexStation 3 scanning fluorometer (Molecular Devices, Sunnyvale, CA, USA). Briefly, human neutrophils were suspended in HBSS^−, loaded with Fluo-4AM at a final concentration of 1.25 μg/mL, and incubated for 30 min in the dark at 37 °C. After dye loading, the cells were washed with HBSS^−, resuspended in HBSS^+, separated into aliquots, and loaded into the wells of flat-bottom, half-area well black microtiter plates (2 × 10^5 cells/well). To assess the direct effects of test compounds on Ca^2+ flux, the compounds were added to the wells (final concentration of DMSO was 1%), and changes in fluorescence were monitored (λex = 485 nm, λem = 538 nm) every 5 s for 240 s at room temperature after addition of the test compound. To evaluate inhibitory effects of the compounds on FPR1/FPR2-dependent Ca^2+ flux, the compounds were added to the wells (final concentration of DMSO was 1%) with cells (human neutrophils or FPR1/FPR2 HL60 cells). The samples were preincubated for 10 min, followed by addition of 5 nM fMLF (for human neutrophils or FPR1-HL60 cells) or 5 nM WKYMVM (for FPR2-HL60 cells). The maximum change in fluorescence, expressed in arbitrary units over baseline, was used to determine the agonist response. Responses were normalized to the response induced by 5 nM fMLF or 5 nM WKYMVM, which were assigned as 100%. Curve fitting (at least five or six points) and calculation of median effective concentration values (EC50 or IC50) were performed by nonlinear regression analysis of the dose–response curves generated using Prism 7 (GraphPad Software, Inc., San Diego, CA, USA). Efficacy was determined by comparing individual responses activated by the test compounds to that induced by a positive control (5 nM fMLF), which was assigned a value of 100%.

IC50 | Structure (SMILES)
30.7 ± 6.4 µM | O=C(N1CCOCCOCCN(C(=O)C23CC4CC(CC(C4)C2)C3)CCOCCOCC1)C12CC3CC(CC(C3)C1)C2 [Compound 16, N,N’-bis[1-oxo-1-(1-adamantyl)methyl]-4,13-diaza-18-crown-6]
28.2 ± 2.6 µM | C1COCCN(CCC23CC4CC(CC(C4)C2)C3)CCOCCOCCN(CCC23CC4CC(CC(C4)C2)C3)CCO1 [Compound 21, N,N’-bis[2-(1-adamantyl)ethyl]-4,13-diaza-18-crown-6]

Tested on: not given
Assay: not given
Settings: not given

melting point | Structure (SMILES)
114 to 118 °C | NCCCCCC(=O)N1CCOCCOCCN(C(=O)CCCCCN)CCOCC1 (as salt: hydrochloride) [Compound 22, N,N’-bis(6-aminohexanoyl)-4,10-diaza-15-crown-5 dihydrochloride]

Tested on: human neutrophils
Assay: Inhibition of fMLF-induced [Ca2+]i flux in human neutrophils
Assay type: cell-based
Settings: Neutrophil, 10 min preincubation, 5 nM fMLF, N.A. = no activity at < 50 µM, read-out: FPR1/FPR2 Agonist-Induced Δ[Ca^2+]i Neutrophils IC50
Description: as §1, §3

IC50 | Structure (SMILES)
3.4 ± 0.8 µM | O=C(N1CCOCCOCCN(C(=O)C23CC4CC(CC(C4)C2)C3)CCOCCOCC1)C12CC3CC(CC(C3)C1)C2 [Compound 16, N,N’-bis[1-oxo-1-(1-adamantyl)methyl]-4,13-diaza-18-crown-6]
10.2 ± 2.6 µM | C1COCCN(CCC23CC4CC(CC(C4)C2)C3)CCOCCOCCN(CCC23CC4CC(CC(C4)C2)C3)CCO1 [Compound 21, N,N’-bis[2-(1-adamantyl)ethyl]-4,13-diaza-18-crown-6]

Tested on: human neutrophils
Assay: Ca2+ mobilization assay, direct effect of compounds on [Ca2+]i
Assay type: cell-based
Settings: Homo sapiens, Neutrophil, % of the response induced by 5 nM fMLF; read-out: Efficacy (converted)
Source text: We screened 24 aza- and diaza-crown ethers with adamantyl, adamantylalkyl, aminomethylbenzoyl, and ε-aminocaproyl substituents for their Ca^2+ ionophore effects in human neutrophils. To monitor cytoplasmic Ca^2+ levels, we used the fluorescent Ca^2+ indicator Fluo-4, which is a dynamic single-wavelength fluorescent Ca^2+ indicator. Increases in fluorescence intensity (λex = 485 nm, λem = 538 nm) reflect the rise in cytoplasmic Ca^2+ concentrations ([Ca^2+]i; see Materials and Methods).
as §3

Structure (SMILES) | Emax
O=C(N1CCOCCOCCN(C(=O)C23CC4CC(CC(C4)C2)C3)CCOCCOCC1)C12CC3CC(CC(C3)C1)C2 [Compound 16, N,N’-bis[1-oxo-1-(1-adamantyl)methyl]-4,13-diaza-18-crown-6] | 25 to 50%
C1COCCN(CCC23CC4CC(CC(C4)C2)C3)CCOCCOCCN(CCC23CC4CC(CC(C4)C2)C3)CCO1 [Compound 21, N,N’-bis[2-(1-adamantyl)ethyl]-4,13-diaza-18-crown-6] | 25 to 50%

Same assay, conditions: Homo sapiens, Neutrophil; elevation of [Ca2+]i, Fluo-4; N.A. = no activity was found at concentration < 50 µM; read-out: EC50, effect on [Ca^2+]i flux in human neutrophils

EC50 | Structure (SMILES)
15.7 ± 3.8 µM | O=C(N1CCOCCOCCN(C(=O)C23CC4CC(CC(C4)C2)C3)CCOCCOCC1)C12CC3CC(CC(C3)C1)C2 [Compound 16, N,N’-bis[1-oxo-1-(1-adamantyl)methyl]-4,13-diaza-18-crown-6]
11.3 ± 3.1 µM | C1COCCN(CCC23CC4CC(CC(C4)C2)C3)CCOCCOCCN(CCC23CC4CC(CC(C4)C2)C3)CCO1 [Compound 21, N,N’-bis[2-(1-adamantyl)ethyl]-4,13-diaza-18-crown-6]

Same assay, conditions: Neutrophil; reciprocal of EC50 in human neutrophils; inactive compounds assigned zero; read-out: 1/[EC50] (converted)

EC50 | Structure (SMILES)
15.7 µM | O=C(N1CCOCCOCCN(C(=O)C23CC4CC(CC(C4)C2)C3)CCOCCOCC1)C12CC3CC(CC(C3)C1)C2 [Compound 16, N,N’-bis[1-oxo-1-(1-adamantyl)methyl]-4,13-diaza-18-crown-6]
11.3 µM | C1COCCN(CCC23CC4CC(CC(C4)C2)C3)CCOCCOCCN(CCC23CC4CC(CC(C4)C2)C3)CCO1 [Compound 21, N,N’-bis[2-(1-adamantyl)ethyl]-4,13-diaza-18-crown-6]

Tested on: human neutrophils
Assay: PMA-induced ROS production (L-012 chemiluminescence)
Assay type: cell-based
Settings: Neutrophil, 200 nM PMA, N.A. = no activity at < 50 µM
Source text: To evaluate if the crown ethers could also disrupt GPCR-independent functional activity, we evaluated the effects of these compounds on phorbol 12-myristate 13-acetate (PMA)-stimulated reactive oxygen species (ROS) production. […] A representative concentration-dependent response for the inhibition of PMA-stimulated neutrophil ROS production by compound 15 is shown in Figure 2B. Since ROS production in neutrophils also requires increased [Ca^2+]i, the results again confirm that the impact of these compounds on Ca^2+ flux kinetics can alter neutrophil function.
ROS production was determined by monitoring L-012-enhanced chemiluminescence, which represents a sensitive and reliable method for detecting superoxide anion (O2^−.) production. Human neutrophils were resuspended at 2 × 10^5 cells/mL in HBSS^+ supplemented with 40 µM L-012. Cells (100 µL) were aliquoted into wells of 96-well flat-bottomed microtiter plates containing test compounds at different concentrations (final DMSO concentration of 1%). Cells were preincubated for 10 min, and 200 nM PMA was added to each well to stimulate ROS production. Luminescence was monitored for 120 min (2-min intervals) at 37 °C using a Fluroscan Ascent FL microtiter plate reader (Thermo Electron, Waltham, MA, USA). The curve of light intensity (in relative luminescence units) was plotted against time, and the area under the curve was calculated as total luminescence. The compound concentration that inhibited ROS production by 50% of the PMA-induced response (positive control) was determined by graphing the percentage inhibition of ROS production versus the logarithm of concentration of test sample (IC50). Each curve was determined using five to seven concentrations.

IC50 | Structure (SMILES)
15.3 ± 1.8 µM | C1COCCN(CCC23CC4CC(CC(C4)C2)C3)CCOCCOCCN(CCC23CC4CC(CC(C4)C2)C3)CCO1 [Compound 21, N,N’-bis[2-(1-adamantyl)ethyl]-4,13-diaza-18-crown-6]

Target: T2, FPR1 (Homo sapiens, UniProt P21462)
T2 construct: expressed in transfected cells
T2 sequence (P21462 1-350): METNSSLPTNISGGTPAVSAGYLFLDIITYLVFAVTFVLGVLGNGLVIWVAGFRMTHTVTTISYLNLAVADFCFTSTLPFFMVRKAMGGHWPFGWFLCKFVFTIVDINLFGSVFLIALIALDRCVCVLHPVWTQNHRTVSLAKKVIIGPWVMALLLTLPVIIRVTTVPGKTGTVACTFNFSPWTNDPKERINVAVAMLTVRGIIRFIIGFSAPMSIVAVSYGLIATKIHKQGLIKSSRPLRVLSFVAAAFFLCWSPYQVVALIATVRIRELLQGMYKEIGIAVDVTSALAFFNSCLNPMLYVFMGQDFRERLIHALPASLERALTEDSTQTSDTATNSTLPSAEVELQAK
Assay: Inhibition of fMLF-induced [Ca2+]i flux in FPR1-HL60 cells
Assay type: cell-based
Settings: 10 min preincubation, 5 nM fMLF; N.A. = no activity at < 50 µM; read-out: FPR1/FPR2 Agonist-Induced Δ[Ca^2+]i FPR1-HL60 IC50
Description: as §1, §2, §3

IC50 | Structure (SMILES)
7.3 ± 2.6 µM | O=C(N1CCOCCOCCN(C(=O)C23CC4CC(CC(C4)C2)C3)CCOCCOCC1)C12CC3CC(CC(C3)C1)C2 [Compound 16, N,N’-bis[1-oxo-1-(1-adamantyl)methyl]-4,13-diaza-18-crown-6]
9.6 ± 2.1 µM | C1COCCN(CCC23CC4CC(CC(C4)C2)C3)CCOCCOCCN(CCC23CC4CC(CC(C4)C2)C3)CCO1 [Compound 21, N,N’-bis[2-(1-adamantyl)ethyl]-4,13-diaza-18-crown-6]

Tested on: human neutrophils
Assay: fMLF-induced neutrophil chemotaxis (ChemoTx chambers)
Assay type: cell-based
Settings: 1 h, 1 nM fMLF, 60 min migration
Description: Human neutrophils were suspended in HBSS^+ containing 2% (v/v) heat-inactivated fetal bovine serum (2 × 10^6 cells/mL), and effects of the compounds on fMLF-induced chemotaxis was analyzed in 96-well ChemoTx chemotaxis chambers (Neuroprobe, Gaithersburg, MD, USA). In brief, neutrophils were preincubated with the indicated concentrations of the test compounds or DMSO for 20 min at room temperature and added to the upper wells of the ChemoTx chemotaxis chambers. The lower wells were loaded with 30 µL of HBSS^+ containing 2% (v/v) fetal bovine serum and the indicated concentrations of test sample plus 1 nM fMLF, DMSO (negative control), or 1 nM fMLF as a positive control. Neutrophils were added to the upper wells and allowed to migrate through the 5.0-µm pore polycarbonate membrane filter for 60 min at 37 °C and 5% CO2. The number of migrated cells was determined by measuring ATP in lysates of transmigrated cells using a luminescence-based assay (CellTiter-Glo; Promega, Madison, WI, USA), and luminescence measurements were converted to absolute cell numbers by comparison of the values with standard curves obtained with known numbers of neutrophils. Curve fitting (at least eight to nine points) and calculation of median effective concentration values (IC50) were performed by nonlinear regression analysis of the dose-response curves generated using Prism 5.

IC50 | Structure (SMILES)
5.3 ± 0.4 µM | O=C(N1CCOCCOCCN(C(=O)C23CC4CC(CC(C4)C2)C3)CCOCCOCC1)C12CC3CC(CC(C3)C1)C2 [Compound 16, N,N’-bis[1-oxo-1-(1-adamantyl)methyl]-4,13-diaza-18-crown-6]
